The target in test [1] is glucose oxidase (GOD, EC 1.1.3.4.) (Aspergillus niger, UniProt P13006). Description: GOD biosensor: oxygen decrease during glucose oxidation in hydrolysed milk with added antibiotic. In kind it is biochemical. The following applies: benzylpenicillin concentration 1000 ppb in milk, glucose and galactose 1.4 mM, 38° C.
The target in test [2] is galactose oxidase (GAO, EC 1.1.3.9) (Gibberella zeae, UniProt P0CS93). Type of test: biochemical. The following applies: GAO biosensor, benzylpenicillin concentration 1000 ppb in milk, glucose and galactose 1.4 mM, 38° C.
Sequence of galactose oxidase (GAO, EC 1.1.3.9) (P0CS93 42-680 limits assumed): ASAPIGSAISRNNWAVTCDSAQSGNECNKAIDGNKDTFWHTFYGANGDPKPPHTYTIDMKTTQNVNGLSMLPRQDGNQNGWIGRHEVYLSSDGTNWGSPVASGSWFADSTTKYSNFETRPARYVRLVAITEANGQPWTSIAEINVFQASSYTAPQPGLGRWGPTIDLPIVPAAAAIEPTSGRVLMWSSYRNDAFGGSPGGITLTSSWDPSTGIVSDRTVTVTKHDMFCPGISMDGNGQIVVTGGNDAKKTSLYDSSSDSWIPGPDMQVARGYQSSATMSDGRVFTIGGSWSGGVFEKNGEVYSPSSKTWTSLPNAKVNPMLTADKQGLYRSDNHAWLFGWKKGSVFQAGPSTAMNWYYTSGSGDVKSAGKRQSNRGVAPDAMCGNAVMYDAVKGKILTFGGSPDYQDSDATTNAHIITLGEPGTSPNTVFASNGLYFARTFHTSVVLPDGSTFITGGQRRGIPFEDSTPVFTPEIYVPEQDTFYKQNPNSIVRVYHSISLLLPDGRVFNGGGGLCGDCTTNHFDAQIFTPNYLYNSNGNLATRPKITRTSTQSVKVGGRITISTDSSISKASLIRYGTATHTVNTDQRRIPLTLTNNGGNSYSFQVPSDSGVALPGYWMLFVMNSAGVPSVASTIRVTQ

Sequence of glucose oxidase (GOD, EC 1.1.3.4.) (P13006 17-605, species assumed): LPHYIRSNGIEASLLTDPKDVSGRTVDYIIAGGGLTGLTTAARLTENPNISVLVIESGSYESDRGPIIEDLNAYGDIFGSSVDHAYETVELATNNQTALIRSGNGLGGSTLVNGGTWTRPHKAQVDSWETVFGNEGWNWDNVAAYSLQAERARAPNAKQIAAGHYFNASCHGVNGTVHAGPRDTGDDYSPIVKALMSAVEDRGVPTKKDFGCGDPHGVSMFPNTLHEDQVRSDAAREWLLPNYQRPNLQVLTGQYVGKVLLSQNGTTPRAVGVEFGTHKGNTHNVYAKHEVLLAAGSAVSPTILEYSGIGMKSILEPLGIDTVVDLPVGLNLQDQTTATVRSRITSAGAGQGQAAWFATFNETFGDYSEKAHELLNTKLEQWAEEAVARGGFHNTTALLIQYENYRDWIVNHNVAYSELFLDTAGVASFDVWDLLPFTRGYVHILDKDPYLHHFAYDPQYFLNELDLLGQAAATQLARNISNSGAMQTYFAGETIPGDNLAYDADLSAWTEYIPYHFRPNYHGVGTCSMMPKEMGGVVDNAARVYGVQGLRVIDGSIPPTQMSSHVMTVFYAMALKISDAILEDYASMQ

With `CC1(C)S[C@@H]2[C@H](NC(=O)Cc3ccccc3)C(=O)N2[C@H]1C(=O)O` [benzylpenicillin], the “steady state parameter A” value in test [1] (antibiotics-free milk A=0.159) was 0.141; in test [2] (antibiotics-free milk A=0.640), 0.435. The entries for the “kinetic parameter B” value in test [1] (antibiotics-free milk B=222.2) and in test [2] (antibiotics-free milk B=53.0) were 146.0 s⁻¹ and 97.8 s⁻¹, respectively.

For the origin of these results see patent US20130011528A1 (priority 2010, published 2013).
